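Following 48 hours of exposure in 96-well plates, responses at five concentrations were used to interpolate endpoints linearly. At the GI50, growth is halved. TGI marks complete inhibition of growth.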
Key:
Assay in all cases: NCI anticancer screen, dose series, 48 h
HOP-92 NSCLC = tested on: HOP-92 NSCLC
SNB-75 CNS = tested on: SNB-75 CNS
UACC-62 melanoma = tested on: UACC-62 melanoma
CCRF-CEM leukemia = tested on: CCRF-CEM leukemia
RXF 393 renal = tested on: RXF 393 renal
SK-OV-3 ovarian = tested on: SK-OV-3 ovarian
A549 NSCLC = tested on: A549 NSCLC
K-562 leukemia = tested on: K-562 leukemia
OVCAR-3 ovarian = tested on: OVCAR-3 ovarian
MDA-MB-435 = tested on: MDA-MB-435
MDA-MB-231 breast = tested on: MDA-MB-231 breast
OVCAR-4 ovarian = tested on: OVCAR-4 ovarian
PC-3 prostate = tested on: PC-3 prostate
NCI-H23 lung = tested on: NCI-H23 lung
UO-31 renal = tested on: UO-31 renal
TK-10 renal = tested on: TK-10 renal
SN12C renal = tested on: SN12C renal
IGROV1 ovarian = tested on: IGROV1 ovarian
SR leukemia = tested on: SR leukemia
LOX IMVI melanoma = tested on: LOX IMVI melanoma
NCI-H226 lung = tested on: NCI-H226 lung
COLO 205 colon = tested on: COLO 205 colon
OVCAR-8 ovarian = tested on: OVCAR-8 ovarian
EKVX NSCLC = tested on: EKVX NSCLC
A498 renal = tested on: A498 renal
MOLT-4 leukemia = tested on: MOLT-4 leukemia
MALME-3M melanoma = tested on: MALME-3M melanoma
KM12 colon = tested on: KM12 colon
HCC-2998 colon = tested on: HCC-2998 colon

For `COc1ccc(/C=N/C2=C(C#N)C(c3ccccc3)c3c(ccc4ccccc34)O2)cc1` (stereo not drawn), the GI50 (HOP-92 NSCLC) was 1.16 µM, the TGI (HOP-92 NSCLC) was 18.2 µM and the GI50 (SNB-75 CNS) was 0.466 µM. It also gave a TGI (SNB-75 CNS) of 4.01 µM, a GI50 (UACC-62 melanoma) of 0.711 µM and a TGI (UACC-62 melanoma) of over 100 µM. The GI50 (CCRF-CEM leukemia) was 0.751 µM, the TGI (CCRF-CEM leukemia) was over 100 µM and the GI50 (RXF 393 renal) was 1.49 µM. The TGI (RXF 393 renal) was 7.19 µM, the GI50 (SK-OV-3 ovarian) was 4.95 µM and the TGI (SK-OV-3 ovarian) was over 100 µM. For the same molecule, the GI50 (A549 NSCLC) was 1.99 µM, the TGI (A549 NSCLC) was over 100 µM and the GI50 (K-562 leukemia) was 0.37 µM. It also gave a TGI (K-562 leukemia) of over 100 µM, a GI50 (OVCAR-3 ovarian) of 0.464 µM and a TGI (OVCAR-3 ovarian) of 10.2 µM. It also gave a GI50 (MDA-MB-435) of 0.273 µM, a TGI (MDA-MB-435) of 0.834 µM and a GI50 (MDA-MB-231 breast) of 2.5 µM. For the same molecule, the TGI (MDA-MB-231 breast) was 22.8 µM, the GI50 (OVCAR-4 ovarian) was 8.75 µM and the TGI (OVCAR-4 ovarian) was over 100 µM. For the same molecule, the GI50 (PC-3 prostate) was 1.22 µM, the TGI (PC-3 prostate) was 18.8 µM and the GI50 (NCI-H23 lung) was 3.41 µM. The TGI (NCI-H23 lung) was over 100 µM, the GI50 (UO-31 renal) was 1.09 µM and the TGI (UO-31 renal) was 37.7 µM. It also gave a GI50 (TK-10 renal) of 19.1 µM, a TGI (TK-10 renal) of over 100 µM and a GI50 (SN12C renal) of 4.23 µM. It also gave a TGI (SN12C renal) of 26.2 µM, a GI50 (IGROV1 ovarian) of 0.57 µM and a TGI (IGROV1 ovarian) of 39.3 µM. The GI50 (SR leukemia) was 0.713 µM, the TGI (SR leukemia) was over 100 µM and the GI50 (LOX IMVI melanoma) was 2.01 µM. It also gave a TGI (LOX IMVI melanoma) of 22.8 µM, a GI50 (NCI-H226 lung) of 2.17 µM and a TGI (NCI-H226 lung) of 54.8 µM. The GI50 (COLO 205 colon) was 2.36 µM, the TGI (COLO 205 colon) was 21.2 µM and the GI50 (OVCAR-8 ovarian) was 4.07 µM. For the same molecule, the TGI (OVCAR-8 ovarian) was over 100 µM, the GI50 (EKVX NSCLC) was 5.02 µM and the TGI (EKVX NSCLC) was over 100 µM. It also gave a GI50 (A498 renal) of 0.594 µM, a TGI (A498 renal) of 6.18 µM and a GI50 (MOLT-4 leukemia) of 1.75 µM. The TGI (MOLT-4 leukemia) was over 100 µM, the GI50 (MALME-3M melanoma) was 0.649 µM and the TGI (MALME-3M melanoma) was 40.4 µM. It also gave a GI50 (KM12 colon) of 1.16 µM, a TGI (KM12 colon) of 35.4 µM and a GI50 (HCC-2998 colon) of 3.81 µM. The TGI (HCC-2998 colon) was 31.5 µM.

From PubChem BioAssay (NCI)
